According to patent publication US11214594B2, “Antimicrobial peptide having synergistic antibacterial effect with antibiotics on multidrug resistant bacteria, and use thereof” (priority 2016, dated 2022):
≈ marks a conversion by molar mass, not a printed value. Read-outs that look alike come from different tables or passages of the source. Where a SMILES comes first, the peptide text is derived from it.

How the values were obtained:
[1] = test system: S. epidermidis; assay: microbe, parasite or virus in culture; type: cell-based, Staphylococcus epidermidis
In short: (§1)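 Each strain is brought to 2×10^6 CFU in nutrient-sufficient Mueller-Hinton medium and dispensed into wells. Peptide solutions, stepwise diluted 2:1 in the same medium, are then added. The minimal concentration preventing growth gives the MIC.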

[2] = test system: MDRAB 12036; type: cell-based, Acinetobacter baumannii
In short: as §1

[3] = test system: MRSA 3114; type: cell-based, Staphylococcus aureus; conditions: 3114
In short: as §1

[4] = test system: MRSA 3126; type: cell-based, Staphylococcus aureus; conditions: 3126
In short: as §1

[5] = test system: S. typhimurium; assay: microbe, parasite or virus in culture; type: cell-based, Salmonella typhimurium
In short: as §1

[6] = test system: P. aeruginosa; assay: microbe, parasite or virus in culture; type: cell-based, Pseudomonas aeruginosa
In short: as §1

[7] = test system: A. baumannii; assay: microbe, parasite or virus in culture; type: cell-based, Acinetobacter baumannii
In short: as §1

[8] = test system: MDRAB 12035; assay: microbe, parasite or virus in culture; type: cell-based, Acinetobacter baumannii
In short: as §1

[9] = test system: MDRAB 12035; assay: MIC of antibiotic during combined treatment with antimicrobial peptide; type: cell-based, Acinetobacter baumannii
In short: (§2)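 Antibiotic MIC came from antibiotic dilutions added to bacteria (2×10^6 CFU/ml, MH medium) already combined with peptide serially diluted 2:1 from its own MIC. Swapping the roles of the two agents gave the peptide MIC.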

[10] = test system: MDREC 1229; type: cell-based, Escherichia coli
In short: as §2

[11] = test system: E. coli; type: cell-based, Escherichia coli; conditions: E. coli
In short: as §2

[12] = test system: S. aureus; assay: microbe, parasite or virus in culture; type: cell-based, Staphylococcus aureus
In short: as §1

[13] = test system: A. baumannii; assay: MIC of antimicrobial peptide during combined treatment with antibiotic; type: cell-based, Acinetobacter baumannii
In short: as §2

[14] = test system: MDRAB 12035; assay: as above; type: cell-based, Acinetobacter baumannii
In short: as §2

[15] = test system: MDREC 1238; type: cell-based, Escherichia coli
In short: as §1

[16] = test system: B. subtilis; assay: microbe, parasite or virus in culture; type: cell-based, Bacillus subtilis
In short: as §1

[17] = test system: MDRST 8007; assay: Minimal inhibitory concentration (MIC), single agent; type: cell-based, Salmonella typhimurium; conditions: agent alone
In short: as §1

[18] = test system: MDREC 1229; assay: MIC of antibiotic during combined treatment with antimicrobial peptide; type: cell-based, Escherichia coli
In short: as §2

[19] = test system: MDRPA 2003; type: cell-based, Pseudomonas aeruginosa
In short: as §1

[20] = test system: MDRPA 2002; type: cell-based, Pseudomonas aeruginosa
In short: as §1

[21] = peptide treatment concentration 1 μg/ml
[22] = peptide treatment concentration 2 μg/ml
[23] = peptide treatment concentration 4 μg/ml
[24] = peptide treatment concentration 6 μg/ml
[25] = peptide treatment concentration 8 μg/ml
[26] = peptide treatment concentration 16 μg/ml
[27] = peptide treatment concentration 32 μg/ml
[28] = peptide treatment concentration 64 μg/ml
[29] = linezolid 64 μg/ml (Conc./MIC 1/8)
[30] = linezolid 512 μg/ml (Conc./MIC 1)
[31] = vancomycin 512 μg/ml (Conc./MIC 1/2)
[32] = vancomycin 1024 μg/ml (Conc./MIC 1)
[33] = erythromycin 4 μg/ml (Conc./MIC 1/8)
[34] = erythromycin 8 μg/ml (Conc./MIC 1/4)
[35] = erythromycin 16 μg/ml (Conc./MIC 1/2)
[36] = erythromycin 32 μg/ml (Conc./MIC 1)

CC[C@H](C)[C@H](NC(=O)[C@H](CCCCN)NC(=O)[C@H](Cc1c[nH]c2ccccc12)NC(=O)[C@@H](N)CCCNC(=N)N)C(=O)N[C@@H](Cc1ccccc1)C(=O)N[C@@H](CCCCN)C(=O)N[C@@H](CCCCN)C(=O)N[C@H](C(=O)N1CCC[C@H]1C(=O)N[C@@H](CCCCN)C(=O)N[C@@H](Cc1ccccc1)C(=O)N[C@@H](CC(C)C)C(=O)N[C@@H](Cc1c[nH]cn1)C(=O)N[C@@H](CCC(=O)O)C(=O)N[C@@H](C)C(=O)N[C@@H](CCCCN)C(=O)N[C@@H](CCCCN)C(=O)N[C@@H](Cc1ccccc1)C(N)=O)[C@@H](C)CC [PapMA-11, RWK IFK KIP KFL HEA KKF-NH2] (H-RWKIFKKIPKFLHEAKKF-NH2; N-terminus assumed)
Minimal inhibitory concentration MIC [1]: >128 µg/mL | Minimal inhibitory concentration MIC [2]: 64 µg/mL (≈ 27.3 µM) | Minimal inhibitory concentration MIC [3]: >128 µg/mL | Minimal inhibitory concentration MIC [4]: >128 µg/mL | Minimal inhibitory concentration MIC [5]: 64 µg/mL (≈ 27.3 µM) | Minimal inhibitory concentration MIC [6]: 128 µg/mL (≈ 54.6 µM) | Minimal inhibitory concentration MIC [7]: 64 µg/mL (≈ 27.3 µM) | Peptide MIC, peptide alone [7]: 64 µg/mL | Minimal inhibitory concentration MIC [8]: 64 µg/mL (≈ 27.3 µM) | Peptide MIC, peptide alone [8]: 64 µg/mL | Erythromycin MIC during combined treatment with peptide [9, 21]: 32 µg/mL | Linezolid MIC during combined treatment with peptide [9, 21]: >128 µg/mL | Vancomycin MIC during combined treatment with peptide [9, 21]: >128 µg/mL | Erythromycin MIC during combined treatment with peptide [9, 22]: 16 µg/mL | Linezolid MIC during combined treatment with peptide [9, 22]: 128 µg/mL | Vancomycin MIC during combined treatment with peptide [9, 22]: 128 µg/mL | Erythromycin MIC during combined treatment with peptide [9, 23]: 8 µg/mL | Linezolid MIC during combined treatment with peptide [9, 23]: 64 µg/mL | Vancomycin MIC during combined treatment with peptide [9, 23]: 64 µg/mL | Erythromycin MIC during combined treatment with peptide [9, 24]: 2 µg/mL | Linezolid MIC during combined treatment with peptide [9, 24]: 32 µg/mL | Vancomycin MIC during combined treatment with peptide [9, 24]: 32 µg/mL | Erythromycin MIC during combined treatment with peptide [9, 25]: 1 µg/mL | Linezolid MIC during combined treatment with peptide [9, 25]: 16 µg/mL | Vancomycin MIC during combined treatment with peptide [9, 25]: 32 µg/mL | Erythromycin MIC during combined treatment with peptide [9, 26]: 0.5 µg/mL | Linezolid MIC during combined treatment with peptide [9, 26]: 8 µg/mL | Vancomycin MIC during combined treatment with peptide [9, 26]: 16 µg/mL | Erythromycin MIC during combined treatment with peptide [9, 27]: 0.125 µg/mL | Linezolid MIC during combined treatment with peptide [9, 27]: 2 µg/mL | Vancomycin MIC during combined treatment with peptide [9, 27]: 4 µg/mL | Erythromycin MIC during combined treatment with peptide [9, 28]: 0 µg/mL | Linezolid MIC during combined treatment with peptide [9, 28]: 0 µg/mL | Vancomycin MIC during combined treatment with peptide [9, 28]: 0 µg/mL | Peptide MIC during treatment with antibiotic ([10]; erythromycin 32 μg/ml (Conc./MIC 1/8)): 4 µg/mL | Peptide MIC during treatment with antibiotic ([10]; erythromycin 64 μg/ml (Conc./MIC 1/4)): 2 µg/mL | Peptide MIC during treatment with antibiotic ([10]; erythromycin […] (Conc./MIC 1)): 0 µg/mL | Peptide MIC during treatment with antibiotic ([10]; erythromycin […] (Conc./MIC 1/2)): 1 µg/mL | Peptide MIC during treatment with antibiotic [10, 29]: 8 µg/mL | Peptide MIC during treatment with antibiotic [10, 30]: 0 µg/mL | Peptide MIC during treatment with antibiotic ([10]; linezolid […] (Conc./MIC 1/2)): 2 µg/mL | Peptide MIC during treatment with antibiotic ([10]; linezolid […] (Conc./MIC 1/4)): 4 µg/mL | Peptide MIC during treatment with antibiotic [10, 31]: 2 µg/mL | Peptide MIC during treatment with antibiotic [10, 32]: 1 µg/mL | Peptide MIC during treatment with antibiotic ([10]; vancomycin […] (Conc./MIC 1/4)): 4 µg/mL | Peptide MIC during treatment with antibiotic ([10]; vancomycin […] (Conc./MIC 1/8)): 8 µg/mL | Peptide MIC ([11]; with Erythromycin […] (Conc./MIC 1)): 0 µg/mL | Peptide MIC ([11]; with Linezolid […] (Conc./MIC 1)): 0 µg/mL | Peptide MIC ([11]; with Vancomycin 1024 μg/ml (Conc./MIC 1)): 0 µg/mL | Minimal inhibitory concentration MIC [12]: >128 µg/mL | Peptide MIC during treatment with antibiotic [13, 33]: 4 µg/mL | Peptide MIC during treatment with antibiotic [13, 34]: 4 µg/mL | Peptide MIC during treatment with antibiotic [13, 35]: 2 µg/mL | Peptide MIC during treatment with antibiotic [13, 36]: 0 µg/mL | Peptide MIC during treatment with antibiotic ([13]; linezolid 32 μg/ml (Conc./MIC 1/8)): 8 µg/mL | Peptide MIC during treatment with antibiotic ([13]; linezolid 64 μg/ml (Conc./MIC 1/4)): 4 µg/mL | Peptide MIC during treatment with antibiotic ([13]; linezolid […] (Conc./MIC 1)): 0 µg/mL | Peptide MIC during treatment with antibiotic ([13]; linezolid […] (Conc./MIC 1/2)): 2 µg/mL | Peptide MIC during treatment with antibiotic [13, 31]: 0.25 µg/mL | Peptide MIC during treatment with antibiotic [13, 32]: 0 µg/mL | Peptide MIC during treatment with antibiotic ([13]; vancomycin […] (Conc./MIC 1/4)): 0.5 µg/mL | Peptide MIC during treatment with antibiotic ([13]; vancomycin […] (Conc./MIC 1/8)): 2 µg/mL | Peptide MIC during treatment with erythromycin [14, 33]: 4 µg/mL | Peptide MIC during treatment with erythromycin [14, 34]: 4 µg/mL | Peptide MIC during treatment with erythromycin [14, 35]: 2 µg/mL | Peptide MIC during treatment with erythromycin [14, 36]: 0 µg/mL | Peptide MIC during treatment with linezolid [14, 29]: 4 µg/mL | Peptide MIC during treatment with linezolid [14, 30]: 0 µg/mL | Peptide MIC during treatment with linezolid ([14]; linezolid […] (Conc./MIC 1/2)): 2 µg/mL | Peptide MIC during treatment with linezolid ([14]; linezolid […] (Conc./MIC 1/4)): 2 µg/mL | Peptide MIC during treatment with vancomycin [14, 31]: 1 µg/mL | Peptide MIC during treatment with vancomycin [14, 32]: 1 µg/mL | Peptide MIC during treatment with vancomycin ([14]; vancomycin […] (Conc./MIC 1/4)): 2 µg/mL | Peptide MIC during treatment with vancomycin ([14]; vancomycin […] (Conc./MIC 1/8)): 2 µg/mL | Minimal inhibitory concentration MIC [15]: 64 µg/mL (≈ 27.3 µM) | Minimal inhibitory concentration MIC [16]: >128 µg/mL | Minimal inhibitory concentration MIC [17]: 64 µg/mL (≈ 27.3 µM) | Antibiotic MIC, Erythromycin [18, 21]: 128 µg/mL | Antibiotic MIC, Linezolid [18, 21]: >128 µg/mL | Antibiotic MIC, Vancomycin [18, 21]: >128 µg/mL | Antibiotic MIC, Erythromycin [18, 22]: 64 µg/mL | Antibiotic MIC, Linezolid [18, 22]: >128 µg/mL | Antibiotic MIC, Vancomycin [18, 22]: >128 µg/mL | Antibiotic MIC, Erythromycin [18, 23]: 16 µg/mL | Antibiotic MIC, Linezolid [18, 23]: 128 µg/mL | Antibiotic MIC, Vancomycin [18, 23]: >128 µg/mL | Antibiotic MIC, Erythromycin [18, 24]: 8 µg/mL | Antibiotic MIC, Linezolid [18, 24]: 128 µg/mL | Antibiotic MIC, Vancomycin [18, 24]: >128 µg/mL | Antibiotic MIC, Erythromycin [18, 25]: 4 µg/mL | Antibiotic MIC, Linezolid [18, 25]: 32 µg/mL | Antibiotic MIC, Vancomycin [18, 25]: 128 µg/mL | Antibiotic MIC, Erythromycin [18, 26]: 1 µg/mL | Antibiotic MIC, Linezolid [18, 26]: 16 µg/mL | Antibiotic MIC, Vancomycin [18, 26]: 16 µg/mL | Antibiotic MIC, Erythromycin [18, 27]: 0.5 µg/mL | Antibiotic MIC, Linezolid [18, 27]: 8 µg/mL | Antibiotic MIC, Vancomycin [18, 27]: 8 µg/mL | Antibiotic MIC, Erythromycin [18, 28]: 0 µg/mL | Antibiotic MIC, Linezolid [18, 28]: 0 µg/mL | Antibiotic MIC, Vancomycin [18, 28]: 0 µg/mL | Minimal inhibitory concentration MIC [19]: >128 µg/mL | Minimal inhibitory concentration MIC [20]: 128 µg/mL (≈ 54.6 µM)
